Assay results reported in ChEMBL document CHEMBL3352102, “Synthesis and bioevaluation of 2-phenyl-4-methyl-1,3-selenazole-5-carboxylic acids as potent xanthine oxidase inhibitors” (Eur J Med Chem, 2014).

Key:
[1] = target: T1, Xanthine dehydrogenase/oxidase (Bos taurus, UniProt P80457); experiment: Inhibition of bovine xanthine oxidase assessed as inhibition of uric acid formation after 30 mins by spectrophotometry
[2] = target: T1, Xanthine dehydrogenase/oxidase; experiment: Inhibition of bovine xanthine oxidase assessed as inhibition of uric acid formation at 10000 nM after 30 mins by spectrophotometry; conditions: cattle, 0.5 h
[3] = target: T1, Xanthine dehydrogenase/oxidase; experiment: Mixed-type inhibition of bovine xanthine oxidase assessed as inhibition of uric acid formation by Lineweaver-Burk plot
[4] = target: T1, Xanthine dehydrogenase/oxidase; experiment: Mixed-type inhibition of reduced form of bovine xanthine oxidase assessed as inhibition of uric acid formation by Lineweaver-Burk plot; conditions: cattle
[5] = target: T1, Xanthine dehydrogenase/oxidase; experiment: Mixed-type inhibition of oxidized form of bovine xanthine oxidase assessed as inhibition of uric acid formation by Lineweaver-Burk plot; conditions: cattle
[6] = target: T1, Xanthine dehydrogenase/oxidase; experiment: Mixed-type inhibition of bovine xanthine oxidase assessed as inhibition of uric acid formation by secondary Lineweaver-Burk plot

T1 sequence (P80457 whole entry): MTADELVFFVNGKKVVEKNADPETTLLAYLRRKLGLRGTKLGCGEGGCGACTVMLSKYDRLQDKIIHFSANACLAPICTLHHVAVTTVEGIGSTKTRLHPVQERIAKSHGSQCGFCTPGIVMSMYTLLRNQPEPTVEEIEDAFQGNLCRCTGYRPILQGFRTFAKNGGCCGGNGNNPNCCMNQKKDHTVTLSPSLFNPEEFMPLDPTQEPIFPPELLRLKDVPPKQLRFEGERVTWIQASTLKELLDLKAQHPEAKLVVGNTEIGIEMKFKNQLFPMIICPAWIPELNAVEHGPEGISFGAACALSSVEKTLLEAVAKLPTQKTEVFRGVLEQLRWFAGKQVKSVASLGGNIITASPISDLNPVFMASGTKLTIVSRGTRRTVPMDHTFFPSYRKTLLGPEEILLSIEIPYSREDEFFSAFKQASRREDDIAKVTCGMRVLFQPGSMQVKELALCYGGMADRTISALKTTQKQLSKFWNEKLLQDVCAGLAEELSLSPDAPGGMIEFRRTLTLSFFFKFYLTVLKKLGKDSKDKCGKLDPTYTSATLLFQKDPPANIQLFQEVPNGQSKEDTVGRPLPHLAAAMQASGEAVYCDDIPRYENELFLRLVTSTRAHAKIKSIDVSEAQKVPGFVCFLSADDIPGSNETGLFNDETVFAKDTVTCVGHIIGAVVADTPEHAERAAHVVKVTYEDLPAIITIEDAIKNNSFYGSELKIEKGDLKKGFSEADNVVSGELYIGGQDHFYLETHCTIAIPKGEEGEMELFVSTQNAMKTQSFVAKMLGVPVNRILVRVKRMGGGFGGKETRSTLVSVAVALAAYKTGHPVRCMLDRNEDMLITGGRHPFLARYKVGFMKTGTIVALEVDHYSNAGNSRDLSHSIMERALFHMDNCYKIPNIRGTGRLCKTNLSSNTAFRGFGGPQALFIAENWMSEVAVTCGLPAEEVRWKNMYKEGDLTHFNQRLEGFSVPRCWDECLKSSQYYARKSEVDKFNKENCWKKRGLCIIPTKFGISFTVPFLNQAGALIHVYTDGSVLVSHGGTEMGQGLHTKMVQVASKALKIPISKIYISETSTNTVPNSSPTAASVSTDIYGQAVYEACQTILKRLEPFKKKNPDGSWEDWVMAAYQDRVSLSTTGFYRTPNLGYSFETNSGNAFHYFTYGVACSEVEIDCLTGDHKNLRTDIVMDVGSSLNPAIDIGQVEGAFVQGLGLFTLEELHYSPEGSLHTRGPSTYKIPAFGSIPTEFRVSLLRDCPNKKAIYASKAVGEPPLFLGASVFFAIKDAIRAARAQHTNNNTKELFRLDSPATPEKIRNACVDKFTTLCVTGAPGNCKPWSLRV

Row | SMILES | IC50 [1] [µM] | further results
1 | CCCCCOc1ccc(-c2nc(C)c(C(=O)O)[se]2)cc1C#N | 0.0456 | 
2 | C=CCOc1ccc(-c2nc(C)c(C(=O)O)[se]2)cc1[N+](=O)[O-] | 0.0161 | 
3 | CCCOc1ccc(-c2nc(C)c(C(=O)O)[se]2)cc1C#N | 0.0162 | 
4 | C#CCOc1ccc(-c2nc(C)c(C(=O)O)[se]2)cc1C#N | 0.0538 | 
5 | C=CCOc1ccc(-c2nc(C)c(C(=O)OCC)[se]2)cc1C#N |  | inhibition at 10 µM [2]: < 50%
6 | CCCCOc1ccc(-c2nc(C)c(C(=O)O)[se]2)cc1[N+](=O)[O-] | 0.0492 | 
7 | COc1ccc(-c2nc(C)c(C(=O)O)[se]2)cc1C#N | 0.0306 | 
8 | Cc1nc(-c2ccc(OCc3ccccc3)c([N+](=O)[O-])c2)[se]c1C(=O)O | 0.0403 | 
9 | CCC(C)Oc1ccc(-c2nc(C)c(C(=O)O)[se]2)cc1C#N (stereo not drawn) | 0.0104 | 
10 | CCOc1ccc(-c2nc(C)c(C(=O)O)[se]2)cc1[N+](=O)[O-] | 0.0825 | 
11 | Cc1nc(-c2ccc(OCCC(C)C)c([N+](=O)[O-])c2)[se]c1C(=O)O | 0.0656 | 
12 | Cc1nc(-c2ccc(OCC(C)C)c([N+](=O)[O-])c2)[se]c1C(=O)O | 0.0337 | 
13 | CCCCOc1ccc(-c2nc(C)c(C(=O)O)[se]2)cc1C#N | 0.0132 | 
14 | C=CCOc1ccc(-c2nc(C)c(C(=O)O)[se]2)cc1C#N | 0.0055 | Ki [3]: 0.0009 µM; inhibition (INH) [4]: Active; inhibition (INH) [5]: Active; Ki [6]: 0.0023 µM
